US20130316016A1, “ANTIBACTERIAL OR ANTI-ACNE FORMULATIONS CONTAINING USNIC ACID OR AN USNATE AND A METAL SALT” (EVOCUTIS PLC, priority 2010, published 2013)
Marks after values point to notes of the source that are not given here.

Tested on: Propionibacterium acnes NCTC 737
Assay: fixed ratio combination MIC/MBC assay
Type: cell-based
Details: for MBC / MIC: test compound alone; for MBC: P. acnes NCTC 737; for MIC: P. acnes NCTC 737, pH 6.0, anaerobic, 37° C., 72 hours; for active against P. acnes NCTC 737: compound alone, statement in words
Experimental: The test organism used was Propionibacterium acnes NCTC 737. This is a propionibacterial strain and is the type strain of the […]; it is fully susceptible to antibiotics. The propionibacteria are clinically significant due to their involvement in acne. They are also opportunistic pathogens in compromised hosts. Activity observed against these micro-organisms is expected to be a good predictor of activity against acne. The propionibacteria were cultured and maintained on Wilkins-Chalgren Anaerobe Medium (agar and broth) at pH 6.0; all cultures were incubated anaerobically at 37° C. for 72 hours. The following “fixed ratio combination MIC/MBC assay” was carried out to assess antimicrobial activity against the test organism. The method used a sterile 96-well microtitre plate, capable of holding about 200 μl of liquid per well. […] The culture medium was as described above. The wells were inoculated with a liquid suspension of freshly grown micro-organism and incubated under the conditions described above. After incubation, the microtitre plate was examined visually (with the aid of a light box) for cloudiness in each well, which would indicate microbial growth. The minimum inhibitory concentration (MIC) value was recorded as the lowest concentration of test compound alone, or the lowest concentration of the mixture of the two test compounds, required to inhibit microbial growth, i.e. where the liquid in the well remained clear. The assays were conducted in triplicate and included both negative (culture medium with no micro-organisms) and positive (culture medium plus diluting solvent(s) plus micro-organism) controls. […] These samples were then individually sub-cultured on antibiotic-free agar medium, under the incubation conditions described above. Following incubation they were examined visually for microbial growth. […] A fractional inhibitory concentration index (FICI) or fractional bactericidal concentration index (FBCI) was then calculated for each compound in the relevant mixture, and these two indices were added together to give an overall FICI or FBCI to indicate the mode of interaction. Thus for each mixture (of two compounds A and B) which was tested, the FIC for compound A (FICA)=MIC for (A+B)/MIC for A alone. Similarly the FIC for compound B (FICB)=MIC for (A+B)/MIC for B alone. The overall […]. FBCs and FBCIs were calculated in the same manner, using recorded MBC values.

Row | Compound | MBC | MIC | active against P. acnes NCTC 737
1 | [Cl][Cu][Cl] [Copper (II) chloride, copper (II) chloride] | >22.25* μg/ml | 12.2 µg/mL | 
2 | CC(=O)[O-].[Cu+] [Copper (I) acetate, copper (I) acetate] | 22.2 µg/mL | 11.1 µg/mL | 
3 | O=S(=O)([O-])[O-].[Cu+2] [Copper (II) sulphate, copper (II) sulphate] | >14.5* μg/ml | >14.5* μg/ml | active
4 | [Cl][Bi]([Cl])[Cl] [Bismuth (III) chloride, bismuth (III) chloride] | >19* μg/ml | 19 µg/mL | active
5 | CC(=O)[O-].CC(=O)[O-].[Cu+2] [Copper (II) acetate, copper (II) acetate] | >16.8* μg/ml | 16.8 µg/mL | 
6 | CC(=O)c1c(O)c(C)c(O)c2c1OC1=CC(=O)C(C(C)=O)C(=O)C12C (stereo not drawn) [Usnic acid, 2,6-diacetyl-7,9-dihydroxy-8,9b-dimethyl-1,3(2H,9bh)-dibenzofurandione] |  |  | active
7 | copper (II) D-gluconate | >41.1* μg/ml | >41.1* μg/ml | 
